Results from patent US10799522B2, “Compositions and methods relating to galectin detection” (Wayne State University, priority 2015, dated 2020).

Tested on: orthotopic human breast carcinoma xenograft (MCF10DCIS)
Assay: dynamic PET/CT imaging, pharmacokinetics and biodistribution in tumor-bearing mice
Format: in vivo, immunedeficient nu/nu mice
Details: 10 mg/kg i.v. 15 min prior to [^18F]FPDTG; at 60 min post injection
Experimental: A single (unilateral) orthotopic breast carcinoma xenograft was established in immunedeficient nu/nu mice by injection of human breast ductal carcinoma in situ cells (MCF10DCIS) in Matrigel into one of the upper mammary fat pad.
Tumor-bearing mice (˜20-25 g) were anesthetized using inhalation of 2% isoflurane in oxygen, and their body temperature maintained at 38° C. by a heating pad with a feedback temperature control. […] Dynamic PET images were acquired in list-mode and reconstructed using OSEM algorithm at multiple time frames post radiotracer administration (0-2, 2-4, 4-6, 6-8, 8-10, 10-20, 20-30, 30-40, 40-50, 50-60 min). Thereafter, while still fixed to the positioning bed, the mice were moved with the bed into the gantry of INVEON SPECT/CT (Siemens), and CT images were acquired over the whole body area for attenuation correction of PET images and for production of PET/CT images. PET/CT fusion images were generated and analyzed in a similar manner as when studying rats.

OC[C@H]1O[C@@H](S[C@@H]2O[C@H](CO)[C@H](O)[C@H](n3cc(-c4cccc(F)c4)nn3)[C@H]2O)[C@H](O)[C@@H](n2cc(-c3cccc(F)c3)nn2)[C@H]1O [FPTDG, bis-{3-deoxy-3-[4-(3-fluorophenyl)-1H-1,2,3-triazol-1-yl]-β-D-galactopyranosyl)sulfane, reference compound]
blockade of the radiotracer uptake and retention in DCIS lesion: > 90%
